Measured values as given in US9505734B2, “Phenyl C-glucoside derivative containing deoxyglucose structure, preparation method and use thereof” (Tianjin Institute of Pharmaceutical Research, priority 2012, dated 2016).
Entries after “also recorded” stand apart in the source; their conditions may differ.

Key:
[1] = tested on: SD rats (type 2 diabetes model); experiment: model for rat urine glucose excretion (glucose-oxidase method); type: in vivo
Protocol: The health SD rats are injected intraperitoneally with multiple low doses of streptozotocin for modeling (type 2 diabetes model) after feeding with high-fat and high-sucrose diet, and the content of blood glucose is measured before and after modeling. After the modeling successful, the rats for modeling are randomly divided (8 rats/group) into one blank group (administering the same volume of 0.5% CMC sodium solution) and several groups for compounds to be tested (6 mg/kg) according to the content of 24-hour urine glucose and the body weight. Rats in each group are fasted for 16 hours before experiment. The experimental rats are administered intragastrically with glucose (2 g/kg) at 0.5 h after intragastrical administration with compounds to be tested. The urine is collected at the time-period of 0-12 h after administration, and the urine glucose values are measured at each time-period by glucose-oxidase method.
The inhibiting activity of the cocrystal of I-D1-6 and L-proline on SGLT2 is measured by the model for rat urine glucose excretion.
The health SD rats are injected intraperitoneally with multiple low doses of streptozotocin for modeling (type 2 diabetes model) after feeding with high-fat and high-sucrose diet for one month, and the content of blood glucose is measured before and after modeling. After the modeling successful, the rats for modeling are randomly divided (8 rats/group) into one blank group (administering the same volume of 0.5% CMC sodium solution) and groups of tested compound (6 mg/kg) according to the content of 24-hour urine glucose and the body weight. Rats in each group are fasted for 16 hours before experiment. The experimental rats are administered intragastrically with the glucose (2 g/kg) at 0.5 h after intragastrical administration with the cocrystal of I-D1-6 and L-proline prepared in Example 138. The urine is collected at the time-period of 0-12 h after administration, and the urine glucose values are measured at each time-period by glucose-oxidase method.

[2] = influencing factors test: higher humidity stability; type: physicochemical
Description: (§1) The appearance, number of impurity and the amount of impurity (measured by HPLC) are compared with that of day 0.

[3] = influencing factors test: higher temperature stability; type: physicochemical; conditions: higher temperature (45° C.), listed as I-D1-6 raw materials
Description: as §1

[4] = target: hSGLT2 (Homo sapiens (Human), UniProt P31639); experiment: IC50 of inhibition on SGLT2; type: cell-based; conditions: for IC50 / Seletivity IC50 (hSGLT1)/IC50 (hSGLT2): Table 3
Sequence of hSGLT2 (P31639 whole entry): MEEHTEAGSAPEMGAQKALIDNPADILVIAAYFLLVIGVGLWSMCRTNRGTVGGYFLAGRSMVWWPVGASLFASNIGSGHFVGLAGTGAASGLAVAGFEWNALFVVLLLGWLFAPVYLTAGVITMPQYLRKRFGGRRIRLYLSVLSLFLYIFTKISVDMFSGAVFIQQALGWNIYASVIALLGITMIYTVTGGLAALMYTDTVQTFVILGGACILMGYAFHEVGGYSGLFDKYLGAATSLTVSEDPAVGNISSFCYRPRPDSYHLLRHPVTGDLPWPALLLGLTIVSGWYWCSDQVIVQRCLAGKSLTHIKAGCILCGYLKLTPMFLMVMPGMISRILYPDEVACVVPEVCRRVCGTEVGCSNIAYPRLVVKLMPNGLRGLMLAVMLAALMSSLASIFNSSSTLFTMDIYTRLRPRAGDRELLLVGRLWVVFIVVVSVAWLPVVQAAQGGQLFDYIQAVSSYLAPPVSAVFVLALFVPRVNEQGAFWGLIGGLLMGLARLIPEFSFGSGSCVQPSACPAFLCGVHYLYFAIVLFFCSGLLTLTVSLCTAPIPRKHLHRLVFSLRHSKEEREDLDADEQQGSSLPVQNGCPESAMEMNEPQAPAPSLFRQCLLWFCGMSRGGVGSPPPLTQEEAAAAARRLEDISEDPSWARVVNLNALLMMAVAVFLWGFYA

[5] = target: hSGLT1 (Homo sapiens (Human), UniProt P13866); experiment: IC50 of inhibition on SGLT1; type: cell-based; conditions: for IC50: Table 3
Sequence of hSGLT1 (P13866 whole entry): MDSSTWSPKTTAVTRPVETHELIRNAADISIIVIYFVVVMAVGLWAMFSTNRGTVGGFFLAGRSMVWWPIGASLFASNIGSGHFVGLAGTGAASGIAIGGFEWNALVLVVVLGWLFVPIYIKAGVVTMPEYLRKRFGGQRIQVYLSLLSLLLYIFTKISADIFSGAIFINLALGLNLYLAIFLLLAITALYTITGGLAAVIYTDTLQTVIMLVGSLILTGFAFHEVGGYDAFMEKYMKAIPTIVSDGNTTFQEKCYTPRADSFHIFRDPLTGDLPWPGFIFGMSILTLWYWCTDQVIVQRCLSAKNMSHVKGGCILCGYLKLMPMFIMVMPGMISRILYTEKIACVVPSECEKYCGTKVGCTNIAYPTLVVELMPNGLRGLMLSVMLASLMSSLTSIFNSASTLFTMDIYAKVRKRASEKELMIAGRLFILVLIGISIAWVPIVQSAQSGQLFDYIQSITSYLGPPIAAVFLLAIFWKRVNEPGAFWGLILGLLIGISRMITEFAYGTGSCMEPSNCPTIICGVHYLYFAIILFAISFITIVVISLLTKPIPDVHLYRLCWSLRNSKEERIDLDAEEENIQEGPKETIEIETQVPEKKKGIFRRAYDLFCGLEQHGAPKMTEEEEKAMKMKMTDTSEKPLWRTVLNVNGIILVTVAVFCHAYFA

[6] = influencing factors test: light stability; type: physicochemical; conditions: for Appearance / Number of impurity / Total amount of impurity (%): listed as I-D1-6 raw materials; for storage stability (in words): two-week stability test under light, higher temperature, higher humidity
Description: as §1

[7] = tested on: Mice; conditions: mice, 10 mice/group, single intragastric dose 750 mg/kg, within one week;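 further: mice weighing 18–20 g, both sexes in equal proportion within each group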
Protocol: Mice (18-20 g) with equal numbers of male and female are divided into groups (10 mice/group), after normal feeding for 3 days, fasted for 12 hours, and then administered intragastrically with a single dose of 750 mg/kg compound respectively.

[8] = higher humidity, day 0, HPLC, listed as I-D1-6 raw materials
[9] = higher humidity, day 7, HPLC, listed as I-D1-6 raw materials
[10] = higher humidity, day 14, HPLC, listed as I-D1-6 raw materials

With `CCOc1ccc(Cc2cc(C3OC(C)C(O)C(O)C3O)ccc2Cl)cc1` [I-D1-6, (1S)-1-[4-chloro-3-(4-ethoxybenzyl)phenyl]-1,6-dideoxy-D-glucose] as the molecule, how does the “urine glucose excretion effect (in words)” value ([1]; comparison in words, rat urine glucose excretion model, 6 mg/kg) read?
The value was “stronger urine glucose excretion effect”.

And the Appearance ([2]; higher humidity (30% relative humidity at 30° C.), day 0, listed as I-D1-6 raw materials)?
The Appearance was “white,”.

What about the Number of impurity [2, 8] of the same molecule?
Its Number of impurity is 7.

What about the “Total amount of impurity (%)” value [2, 8] of the same molecule?
The value was 0.89%.

What about the Appearance ([2]; higher humidity, day 7) of the same molecule?
The Appearance was “white”.

And the Number of impurity [2, 9]?
Its Number of impurity is 7.

What about the “Total amount of impurity (%)” value [2, 9] of the same molecule?
The value was 0.93%.

And the Appearance ([2]; higher humidity, day 14)?
The Appearance was “white”.

And the Number of impurity [2, 10]?
The Number of impurity was 8.

And the “Total amount of impurity (%)” value [2, 10]?
Its value is 1.08%.

And the Number of impurity ([3]; day 0, HPLC)?
Its Number of impurity is 7.

And the “Total amount of impurity (%)” value ([3]; day 0, HPLC)?
Its value is 0.89%.

And the Appearance ([3]; day 0)?
Its Appearance is “white,”.

And the Number of impurity ([3]; day 7, HPLC)?
Its Number of impurity is 8.

And the “Total amount of impurity (%)” value ([3]; day 7, HPLC)?
The value was 0.97%.

What about the Appearance ([3]; day 7) of the same molecule?
The Appearance was “white,”.

What about the Number of impurity ([3]; day 14, HPLC) of the same molecule?
Its Number of impurity is 9.

What about the “Total amount of impurity (%)” value ([3]; day 14, HPLC) of the same molecule?
The value was 1.13%.

And the Appearance ([3]; day 14)?
Its Appearance is “white,”.

What about the “inhibition to SGLT2 (in words)” value ([4]; in words) of the same molecule?
Its value is “inhibitory effect on SGLT2 enzyme; also recorded: much stronger inhibition to SGLT2”.

And the “selectivity on SGLT1/SGLT2 (in words)” value ([4]; in words)?
Its value is “much better selectivity on SGLT1/SGLT2”.

What about the “inhibition to SGLT1 (in words)” value ([5]; in words) of the same molecule?
The value was “much less inhibition to SGLT1”.

And the Appearance ([6]; light (natural daylight, about 80000 Lx), day 0)?
The Appearance was “a white,”.

What about the Number of impurity ([6]; light, day 0, HPLC) of the same molecule?
The Number of impurity was 7.

And the “Total amount of impurity (%)” value ([6]; light, day 0, HPLC)?
Its value is 0.89%.

What about the Number of impurity ([6]; light, day 7, HPLC) of the same molecule?
Its Number of impurity is 7.

What about the “Total amount of impurity (%)” value ([6]; light, day 7, HPLC) of the same molecule?
The value was 0.93%.

And the Appearance ([6]; light, day 7)?
The Appearance was “a white,”.

And the Number of impurity ([6]; light, day 14, HPLC)?
The Number of impurity was 7.

What about the “Total amount of impurity (%)” value ([6]; light, day 14, HPLC) of the same molecule?
Its value is 0.96%.

And the Appearance ([6]; light, day 14)?
The Appearance was “a white,”.

For `CCOc1ccc(Cc2cc(C3OC(C)C(O)C(O)C3O)ccc2Cl)cc1` [cocrystal of I-D1-6 and L-proline, cocrystal of (1S)-1-[4-chloro-3-(4-ethoxybenzyl)phenyl]-1,6-dideoxy-D-glucose (I-D1-6) and L-proline], which urine glucose production ([1]; type 2 diabetes model SD rats, 6 mg/kg intragastrically, glucose 2 g/kg at 0.5 h, urine 0-12 h) is on record?
The urine glucose production was 912 mg urine glucose/200 g body weight.

What about the “Selectivity IC50 (hSGLT1)/IC50 (hSGLT2)” value ([4]; Table 4, cocrystal prepared in Example 138) of the same molecule?
Its value is 375.

And the “storage stability (in words)” value [6]?
Its value is “good storage stability”.

What about the “storage stability (in words)” value ([6]; listed as cocrystal) of the same molecule?
The value was “better storage stability”.

With `OCC1CC(O)C(O)C(c2ccc(F)c(Cc3cc4ccccc4s3)c2)O1` (centres unmarked) [drawing 284] as the molecule, how does the “Behaviors after administration with the compound to be tested (deaths)” value (“Behaviors after administration” for short) [7] read?
Its value is 1 dead.

Which “Behaviors after administration” value [7] does the source give for `OCC1OC(c2ccc(F)c(Cc3cc4ccccc4s3)c2)CC(O)C1O` (centres unmarked) [drawing 285] here?
Its value is 3 dead.

With `CC1OC(c2ccc(Cl)c(Cc3ccc(O[C@H]4CCOC4)cc3)c2)C(O)C(O)C1O` (some centres unmarked) [drawing 286] as the molecule, how does the “Behaviors after administration” value [7] read?
Its value is 1 dead.

Which “Behaviors after administration” value [7] does the source give for `OCC1OC(c2ccc(Cl)c(Cc3ccc(O[C@H]4CCOC4)cc3)c2)CC(O)C1O` (some centres unmarked) [drawing 287] here?
The value was 2 dead.

With `CCc1ccc(Cc2c(Cl)ccc3c2COC32OC(CO)C(O)CC2O)cc1` (centres unmarked) [drawing 288] as the molecule, how does the “Behaviors after administration” value [7] read?
Its value is 5 dead.

With `CCOc1ccc(Cc2cc(C3SC(CO)CC(O)C3O)c(OC)cc2C)cc1` (centres unmarked) [drawing 289] as the molecule, how does the “Behaviors after administration” value [7] read?
Its value is 1 dead.

For `CCc1ccc(Cc2c(Cl)ccc3c2COC32CC(O)C(O)C(CO)O2)cc1` (centres unmarked) [drawing 290], which “Behaviors after administration” value [7] is on record?
The value was 2 dead.

With `CCOc1ccc(Cc2cc(C3CC(O)C(O)C(CO)S3)c(OC)cc2C)cc1` (centres unmarked) [drawing 291] as the molecule, how does the “Behaviors after administration” value [7] read?
The value was 3 dead.

For `CCOc1ccc(Cc2cc([C@]34OC[C@](C)(O3)[C@@H](O)[C@H](O)[C@H]4O)ccc2Cl)cc1` [drawing 292], which “Behaviors after administration” value [7] is on record?
Its value is 3 dead.

With `CCOc1ccc(Cc2cc([C@@]34OC[C@@](CO)(C[C@H](O)[C@H]3O)O4)ccc2Cl)cc1` [drawing 293] as the molecule, how does the “Behaviors after administration” value [7] read?
The value was 4 dead.

Which “Behaviors after administration” value [7] does the source give for `CCOc1ccc(Cc2cc(C3OC(C)CC(O)C3O)ccc2Cl)cc1` (centres unmarked) [drawing 294] here?
The value was 1 dead.

Which “Behaviors after administration” value [7] does the source give for `CC1OC(c2ccc(F)c(Cc3cc4ccccc4s3)c2)CC(O)C1O` (centres unmarked) [drawing 295] here?
Its value is 1 dead.

With `CCc1ccc(Cc2c(Cl)ccc3c2COC32CC(O)CC(CO)O2)cc1` (centres unmarked) [drawing 296] as the molecule, how does the “Behaviors after administration” value [7] read?
Its value is 1 dead.

Which “Behaviors after administration” value [7] does the source give for `OCC1CC(O)C(O)C(c2ccc(Cl)c(Cc3ccc(O[C@H]4CCOC4)cc3)c2)O1` (some centres unmarked) [drawing 297] here?
The value was 2 dead.

For `CCc1ccc(Cc2c(Cl)ccc3c2COC32OC(CO)CC(O)C2O)cc1` (centres unmarked) [drawing 298], which “Behaviors after administration” value [7] is on record?
The value was 5 dead.

For `CCc1ccc(Cc2c(Cl)ccc3c2COC32OC(C)C(O)C(O)C2O)cc1` (centres unmarked) [drawing 299], which “Behaviors after administration” value [7] is on record?
The value was 3 dead.

With `CCOc1ccc(Cc2cc(C3SC(CO)C(O)CC3O)c(OC)cc2C)cc1` (centres unmarked) [drawing 300] as the molecule, how does the “Behaviors after administration” value [7] read?
Its value is 0 dead.

Which “Behaviors after administration” value [7] does the source give for `CCOc1ccc(Cc2cc(C3SC(CO)C(O)CC3O)c(OC)cc2C)cc1` (centres unmarked) [drawing 301] here?
The value was 3 dead.

With `CCOc1ccc(Cc2cc(C3SC(C)C(O)C(O)C3O)c(OC)cc2C)cc1` (centres unmarked) [drawing 302] as the molecule, how does the “Behaviors after administration” value [7] read?
The value was 4 dead.

Which “Behaviors after administration” value [7] does the source give for `CCOc1ccc(Cc2cc([C@]34C[C@@H](O)[C@H](O)[C@](CO)(CO3)O4)ccc2Cl)cc1` [drawing 303] here?
The value was 2 dead.

Which “Behaviors after administration” value [7] does the source give for `CCOc1ccc(Cc2cc([C@]34OC[C@](CO)(O3)[C@@H](O)C[C@H]4O)ccc2Cl)cc1` [drawing 304] here?
The value was 3 dead.

With `Cc1ccc(C2OC(C)C(O)CC2O)cc1Cc1ccc(-c2ccc(F)cc2)s1` (centres unmarked) [drawing 305] as the molecule, how does the “Behaviors after administration” value [7] read?
The value was 0 dead.

Which “Behaviors after administration” value [7] does the source give for `OCC1CCC(O)C(c2ccc(Cl)c(Cc3ccc(O[C@H]4CCOC4)cc3)c2)O1` (some centres unmarked) [drawing 306] here?
Its value is 2 dead.

Which “Behaviors after administration” value [7] does the source give for `CCOc1ccc(Cc2cc(C3CCC(O)C(CO)S3)c(OC)cc2C)cc1` (centres unmarked) [drawing 307] here?
The value was 0 dead.

Which IC50 [4] does the source give for `COc1ccc(Cc2cc(C3OC(C)C(O)C(O)C3O)ccc2Cl)cc1` (centres unmarked) [drawing 308] here?
Its IC50 is 3.3 nM.

And the “Seletivity IC50 (hSGLT1)/IC50 (hSGLT2)” value [4]?
Its value is 26.

What about the IC50 [5] of the same molecule?
Its IC50 is 86 nM.

Which results are given for `CCOc1ccc(Cc2cc(C3OC(C)C(O)C(O)C3O)ccc2Cl)cc1` (centres unmarked) [drawing 309]?
IC50 [4]: 0.67 nM; Seletivity IC50 (hSGLT1)/IC50 (hSGLT2) [4]: 374; IC50 [5]: 251 nM

With `CCOc1ccc(Cc2cc(C3OC(C)C(O)C(O)C3O)ccc2C)cc1` (centres unmarked) [drawing 310] as the molecule, how does the IC50 [4] read?
Its IC50 is 7.8 nM.

What about the “Seletivity IC50 (hSGLT1)/IC50 (hSGLT2)” value [4] of the same molecule?
Its value is 24.

And the IC50 [5]?
Its IC50 is 187 nM.
